From patent publication US8541419B2, “Isotopically enriched pyrimidin-5-yl acetic acid derivatives as CRTH2 antagonists” (Actimis Pharmaceuticals, Inc., priority 2008, dated 2013)
Values joined by “and” are separate entries in the source; they are usually repeats but may differ in a detail not shown here. Equal values may be shown once. Marks after values point to notes of the source that are not given here.

Key:
[1] = Pharmacokinetics and bioavailability in male Han Wistar rats after simultaneous oral administration; assay type: in vivo; design: AUC0-t / AUC0-∞: concentration or dose not given beside the values
From the text: (§1) The pharmacokinetics and bioavailability of [4,6-bis([^2H6]dimethylamino)-2-(4-{[4-(trifluoromethyl)benzoyl]amino}benzyl)pyrimidin-5-yl]acetic acid (1) and [4,6-bisdimethylamino)-2-(4-{[4-(trifluoromethyl)benzoyl]amino}benzyl)pyrimidin-5-yl]acetic acid (“the undeuterated analog”) were compared in male Han Wistar rats after intravenous (“IV”) and oral (“PO”) administration.
(§2) The following additional acronyms and definitions are used in the study: • AUC0-∞—area under the plasma concentration time curve from time 0 to infinity • AUC0-t—area under the plasma concentration time curve from time 0 to the last quantifiable timepoint • AUMC—area under the first moment curve • CL—total plasma clearance • Cmax—maximum plasma concentration • MRT—mean residence time • PEG—polyethylene glycol • t½—elimination half-life • tmax—time of maximum plasma concentration • Vss—steady-state volume of distribution
(§3) Compound 1 (1.02 mg/kg) and the undeuterated analog (1.0 mg/kg) and were administered simultaneously as a solution in PEG 400:ethanol:water (40:10:50) both intravenously and orally (by gavage) to four male rats per dose route. The doses were equivalent on a molar basis. Blood samples were collected serially up to 48 h postdose. […] Noncompartmental pharmacokinetic parameters were calculated and the results compared statistically using paired t-tests, since the simultaneous administration of both compounds allows each rat to serve as its own control.

[2] = Pharmacokinetics in male Han Wistar rats after simultaneous intravenous administration; assay type: in vivo; design: AUC0-t / AUC0-∞: concentration or dose not given beside the values
From the text: as §1, §2, §3

CRTH2 = biological target: T1, CRTH2 (Homo sapiens, UniProt Q9Y5Y4); experiment: Biological inhibitory activity in vitro
T1 sequence (Q9Y5Y4 1-395): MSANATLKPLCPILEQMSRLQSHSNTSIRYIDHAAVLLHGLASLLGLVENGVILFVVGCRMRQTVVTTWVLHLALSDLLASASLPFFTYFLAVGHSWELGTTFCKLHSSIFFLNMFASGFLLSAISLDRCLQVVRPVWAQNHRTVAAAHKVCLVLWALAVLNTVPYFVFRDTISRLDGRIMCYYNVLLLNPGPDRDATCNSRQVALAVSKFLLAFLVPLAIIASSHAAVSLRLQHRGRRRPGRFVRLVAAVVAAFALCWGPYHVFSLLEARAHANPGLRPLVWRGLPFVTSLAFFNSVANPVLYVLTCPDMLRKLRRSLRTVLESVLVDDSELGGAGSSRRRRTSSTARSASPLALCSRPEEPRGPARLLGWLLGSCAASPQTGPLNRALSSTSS

[3] = oral, individual rats, listed as H
[4] = IV, individual rats, listed as H
[5] = male, Han Wistar, rat, in vivo, po
[6] = male, Han Wistar, rat, in vivo, iv

## CN(C)c1nc(Cc2ccc(NC(=O)c3ccc(C(F)(F)F)cc3)cc2)nc(N(C)C)c1CC(=O)O [Undeuterated Analog, reference compound]
[1]; oral, 0.25 h, individual rats
  Plasma Concentrations: 959 ng/mL and 308 ng/mL and 1,520 ng/mL and 1,180 ng/mL and 1,910 nM and 614 nM and 3,030 nM and 2,350 nM
[1]; oral, 0.25 h, mean
  Plasma Concentrations: 992 ng/mL and 1980 nM
[1]; oral, 0.5 h, individual rats
  Plasma Concentrations: 1,060 ng/mL and 355 ng/mL and 2,940 ng/mL and 1,590 ng/mL and 2,110 nM and 708 nM and 5,860 nM and 3,170 nM
[1]; oral, 0.5 h, mean
  Plasma Concentrations: 1,490 ng/mL and 2960 nM
[1]; oral, 1 h, individual rats
  Plasma Concentrations: 744 ng/mL and 191 ng/mL and 3,180 ng/mL and 1,220 ng/mL and 1,480 nM and 381 nM and 6,340 nM and 2,430 nM
[1]; oral, 1 h, mean
  Plasma Concentrations: 1,330 ng/mL and 2660 nM
[1]; oral, 2 h, individual rats
  Plasma Concentrations: 463 ng/mL and 104 ng/mL and 1,290 ng/mL and 548 ng/mL and 923 nM and 207 nM and 2,570 nM and 1,090 nM
[1]; oral, 2 h, mean
  Plasma Concentrations: 601 ng/mL and 1200 nM
[1]; oral, 4 h, individual rats
  Plasma Concentrations: 68.4 ng/mL and 32.5 ng/mL and 559 ng/mL and 178 ng/mL and 64.8 nM and 1,120 nM and 355 nM
[1]; oral, 4 h, mean
  Plasma Concentrations: 209 ng/mL and 511 nM
[1]; oral, 6 h, individual rats
  Plasma Concentrations: 22.0 ng/mL and 24.1 ng/mL and 387 ng/mL and 93.3 ng/mL and 43.9 nM and 48.1 nM and 772 nM and 186 nM
[1]; oral, 6 h, mean
  Plasma Concentrations: 132 ng/mL and 262 nM
[1]; oral, 8 h, individual rats
  Plasma Concentrations: 12.3 ng/mL and 18.7 ng/mL and 217 ng/mL and 76.8 ng/mL and 24.5 nM and 37.3 nM and 433 nM and 153 nM
[1]; oral, 8 h, mean
  Plasma Concentrations: 81.2 ng/mL and 162 nM
[1]; oral, 24 h, individual rats
  Plasma Concentrations: <1.00 ng/mL and 2.99 ng/mL and 2.16 ng/mL and <1.99 nM and 5.96 nM and 4.31 nM
[1]; oral, 24 h, mean
  Plasma Concentrations: 1.29 ng/mL and 2.57 nM
[1]; oral, 48 h, individual rats
  Plasma Concentrations: <1.00 ng/mL and 1.57 ng/mL and <1.99 nM and 3.13 nM
[1]; oral, 48 h, mean
  Plasma Concentrations: 0.393 ng/mL and 0.783 nM
[1]; oral, harmonic mean N=4, listed as H
  t1/2: 2.39 ± 2.11 h and 2.39^d h
[1]; [3]
  AUC0-t: 3,880 nM · h and 1,280 nM · h and 19,300 nM · h and 7,820 nM · h
  AUC0-∞: 3,920 nM · h and 1,550 nM · h and 19,300 nM · h and 7,850 nM · h
  Bioavailability: 10.3% and 4.06% and 50.5% and 20.6%
  CL/F: 8.48 mL/min/kg and 21.5 mL/min/kg and 1.72 mL/min/kg and 4.23 mL/min/kg
  Cmax: 2.11 µM and 0.708 µM and 6.34 µM and 3.17 µM
  MRT: 1.40 h and 4.25 h and 3.36 h and 3.47 h
  t1/2: 1.10 h and 5.02 h and 2.57 h and 5.63 h
  tmax: 0.5 h (3×) and 1 h
[1]; oral, mean N=4
  Cmax: 3.08 µM
[1]; oral, mean N=4, listed as H
  AUC0-t: 8,070 ± 7,950 nM · h and 8,070 nM · h
  AUC0-∞: 8,160 ± 7,880 nM · h and 8,160 nM · h
  Bioavailability: 21.3%
  CL/F: 8.97^c ± 8.78^ mL/min/kg and 8.97 mL/min/kg
  MRT: 3.12 ± 1.21 h and 3.12 h
[1]; oral, mean N=4, listed as the undeuterated analog
  Bioavailability: 45.6%
[1]; oral, median (range) N=4, listed as H
  tmax: 0.5 (0.5-1.0)^e h and 0.5^a h
[2]; IV, 8 h, individual rats
  Plasma Concentrations: 64.0 ng/mL and 173 ng/mL and 88.4 ng/mL and 12.0 ng/mL
[2]; IV, 8 h, mean
  Plasma Concentrations: 84.4 ng/mL
[2]; IV, 24 h, individual rats
  Plasma Concentrations: 12.0 ng/mL and 4.78 ng/mL and 3.29 ng/mL and <1.00 ng/mL
[2]; IV, 24 h, mean
  Plasma Concentrations: 5.02 ng/mL
[2]; IV, 48 h, individual rats
  Plasma Concentrations: 1.01 ng/mL
[2]; IV, harmonic mean N=4, listed as H
  t1/2: 3.23 ± 1.99 h and 3.23^b h
[2]; [4]
  AUC0-t: 14,700 nM · h and 23,300 nM · h and 24,300 nM · h and 9,020 nM · h
  AUC0-∞: 14,700 nM · h and 23,300 nM · h and 24,400 nM · h and 9,090 nM · h
  CL: 2.25 mL/min/kg and 1.43 mL/min/kg and 1.36 mL/min/kg and 3.66 mL/min/kg
  MRT: 2.43 h and 2.20 h and 1.26 h and 0.569 h
  Vss: 0.328 L/kg and 0.189 L/kg and 0.103 L/kg and 0.125 L/kg
  t1/2: 6.68 h and 3.12 h and 3.60 h and 2.03 h
[2]; IV, mean N=4, listed as H
  CL: 2.17 ± 1.07 mL/min/kg and 2.17 mL/min/kg
  MRT: 1.62 ± 0.861 h and 1.62 h
  Vss: 0.186 ± 0.101 L/kg and 0.186 L/kg

## [2H]C([2H])([2H])N(c1nc(Cc2ccc(NC(=O)c3ccc(C(F)(F)F)cc3)cc2)nc(N(C([2H])([2H])[2H])C([2H])([2H])[2H])c1CC(=O)O)C([2H])([2H])[2H] [Compound 1, [4,6-bis([^2H6]dimethylamino)-2-(4-{[4-(trifluoromethyl)benzoyl]amino}benzyl)pyrimidin-5-yl]acetic acid]
CRTH2
  biological inhibitory activity in vitro compared to the undeuterated analog: comparable
[1]; [5]
  AUC0-t higher than that of the undeuterated analog: 71%
  AUC0-∞ higher than that of the undeuterated analog: 63%
  Cmax higher than that of the undeuterated analog: 42%
  Extrapolated area of AUC0-∞, averaged, of total area: < 1.5%
[1]; male, Han Wistar, rat, in vivo, po, 1.02 mg/kg
  tmax: 1 h
[1]; male, Han Wistar, rat, in vivo, po, 1.02 mg/kg, MRT
  MRT: 2.61 ± 0.708 h
[1]; male, Han Wistar, rat, in vivo, po, 1.02 mg/kg, tmax
  tmax: 0.5 h
[1]; male, Han Wistar, rat, in vivo, po, Bioavailability
  Bioavailability: 52.5%
[1]; rat, in vivo
  bioavailability relative to the unlabeled drug: better bioavailability
[1]; rat, in vivo, po
  plasma concentrations compared with the undeuterated analog: greater than those of the undeuterated analog
[2]; [6]
  AUC0-∞ higher than that of the undeuterated analog: 28%
  Extrapolated area of AUC0-∞, averaged, of total area: < 0.15%
  clearance as percent of that of the undeuterated analog: 80%
[2]; rat, in vivo
  clearance relative to the unlabeled drug: reduced clearance
[2]; rat, in vivo, iv
  plasma concentrations compared with the undeuterated analog: greater than those of the undeuterated analog
